Laboratory results reported in publication PMC2631173 (Chemistry & biology, 2008).

Molecular target: cellular retinoic acid-binding protein I (CRABP I), CPG variant (Mus musculus, UniProt P62965, R132Q)
Assay: fluorescence equilibrium titration of […] FlAsH with purified protein, […] EDT

Sequence of cellular retinoic acid-binding protein I (CRABP I), CPG variant (P62965 2-137 R132Q): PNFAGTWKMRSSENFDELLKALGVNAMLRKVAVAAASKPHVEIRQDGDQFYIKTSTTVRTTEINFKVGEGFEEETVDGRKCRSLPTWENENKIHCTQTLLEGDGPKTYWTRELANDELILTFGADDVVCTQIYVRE

O=C1OC2(c3ccccc31)c1ccc(O)c([As]3SCCS3)c1Oc1c2ccc(O)c1[As]1SCCS1 [FlAsH]
Kd: 400 nM
